Some results are limits rather than exact numbers.

T1 sequence (P23945 18-695): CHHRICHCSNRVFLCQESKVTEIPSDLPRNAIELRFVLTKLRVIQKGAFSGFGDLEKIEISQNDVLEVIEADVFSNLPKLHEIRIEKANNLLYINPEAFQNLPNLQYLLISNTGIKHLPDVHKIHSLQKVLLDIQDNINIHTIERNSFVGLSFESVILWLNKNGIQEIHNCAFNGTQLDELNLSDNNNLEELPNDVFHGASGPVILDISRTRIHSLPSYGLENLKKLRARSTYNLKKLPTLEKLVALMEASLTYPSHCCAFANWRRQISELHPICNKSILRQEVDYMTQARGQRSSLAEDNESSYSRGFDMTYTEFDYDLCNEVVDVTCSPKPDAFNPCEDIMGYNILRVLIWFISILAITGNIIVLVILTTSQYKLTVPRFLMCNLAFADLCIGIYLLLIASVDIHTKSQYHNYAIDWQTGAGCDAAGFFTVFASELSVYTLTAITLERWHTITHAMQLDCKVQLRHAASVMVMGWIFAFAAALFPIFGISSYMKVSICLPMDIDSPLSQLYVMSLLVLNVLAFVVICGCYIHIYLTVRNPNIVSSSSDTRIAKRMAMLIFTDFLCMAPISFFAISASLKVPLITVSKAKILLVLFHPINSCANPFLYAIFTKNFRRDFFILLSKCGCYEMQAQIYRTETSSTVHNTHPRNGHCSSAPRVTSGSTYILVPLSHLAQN
T1 sequence (P01215 25-116 partner): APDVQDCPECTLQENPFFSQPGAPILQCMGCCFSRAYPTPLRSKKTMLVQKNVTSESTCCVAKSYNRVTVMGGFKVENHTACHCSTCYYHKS
T1 sequence (P01225 19-129 partner): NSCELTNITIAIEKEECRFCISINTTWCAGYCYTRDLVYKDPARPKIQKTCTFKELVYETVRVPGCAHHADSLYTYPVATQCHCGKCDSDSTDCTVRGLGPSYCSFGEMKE

The first assay addresses T1, FSHR (Homo sapiens, UniProt P23945).
T1 construct: expressed in transfected cells; host or cells: CHO (Cho-FSHR-LUC-1-1-43)
The experiment in a line: EC50 of cyclic AMP production in CHO FSHR cells + EC20 FSH (Assay A). Type of assay: cell-based. Particulars: 1 h; 5 μM; effect relative to maximum response of the FSH standard; Table 1. The method in brief:
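cAMP HTRF ratio (665/620 nm) read after 1 h, 37 °C exposure of CHO-FSHR cells to compound in presence of EC20 FSH ([…]) and IBMX 200 μM. Responses given relative to FSH standard maximum; EC50 derived.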
Turning to `COc1ccccc1N1CCN(c2ccc(C(=O)NCCCN3CCCC3=O)cc2NC(=O)c2ccco2)CC1` [Compound 166], the activation at 5 µM was 20%.
Still for that read-out and setting: then `Cc1ccccc1N1CCN(c2ccc(C(=O)NCCCN3CCCC3=O)cc2NC(=O)c2ccc3ccccc3c2)CC1` [Compound 43], with 44%; and `Cc1ccccc1N1CCN(c2ccc(C(=O)NCc3ccc(C(F)(F)F)cc3)cc2NC(=O)c2ccco2)CC1` [Compound 94, Furan-2-carboxylic acid [2-(4-o-tolyl-piperazin-1-yl)-5-(4-trifluoromethyl-benzylcarbamoyl)-phenyl]-amide], with 48%.
Still for that read-out and setting: in the case of `Cc1ccccc1N1CCN(c2ccc(C(=O)NCCCN3CCCC3=O)cc2NC(=O)c2cccc3c2CCCC3)CC1` [Compound 112] it was 21%.

Staying with this assay, now noted: CHO FSHR cells + EC20 FSH; Table 1; read-out: Assay A EC50 of cyclic AMP production.
The term EC50 denotes the concentration needed to bring the measured effect to its halfway point. Take `Cc1ccc(C(=O)Nc2cc(C(=O)NCCCNC(=O)OC(C)(C)C)ccc2N2CCN(c3ccccc3C)CC2)o1` [Compound 258, {3-[3-[(5-Methyl-furan-2-carbonyl)-amino]-4-(4-o-tolyl-piperazin-1-yl)-benzoylamino]-propyl}-carbamic acid tert-butyl ester]: the EC50 was in the range of 1 to 10 µM.
As for `Cc1ccccc1N1CCN(c2ccc(C(=O)NCCCn3ccnc3)cc2NC(=O)c2ccco2)CC1` [Compound 116], the concentration giving a half-maximal response (EC50) lay in the range of 0.1 to 1 µM.
As to `COc1ccc(C(=O)Nc2cc(C(=O)NCCCN3CCCC3=O)ccc2N2CCN(c3ccccc3C)CC2)c(OC)c1` [Compound 59], the EC50 lay within 1 to 10 µM.
`Cc1ccccc1N1CCN(c2ccc(C(=O)NCCCN3CCCC3=O)cc2NC(=O)c2cccc(F)c2)CC1` [Compound 30]: the concentration giving a half-maximal response (EC50) lay within 1 to 10 µM.
Same read-out and setting: then `Cc1ccccc1N1CCN(c2ccc(C(=O)NCCCN3CCCC3=O)cc2NC(=O)c2ccc(Cl)cc2)CC1` [Compound 29], with 0.1 to 1 µM; and `Cc1ccccc1N1CCN(c2ccc(C(=O)NCCCn3ccnc3C)cc2NC(=O)c2ccco2)CC1` [Compound 118], with 0.1 to 1 µM; and `Cc1ccccc1N1CCN(c2ccc(C(=O)NCCCN3CCCC3=O)cc2NC(=O)c2ccccc2C(F)(F)F)CC1` [Compound 87], with 1 to 10 µM.
Still for that read-out and setting: in the case of `Cc1ccccc1N1CCN(c2ccc(C(=O)NCc3cccc4ccccc34)cc2NC(=O)c2ccco2)CC1` [Compound 96, Furan-2-carboxylic acid [5-[(naphthalen-1-ylmethyl)-carbamoyl]-2-(4-o-tolyl-piperazin-1-yl)-phenyl]-amide] it was over 10 µM; in that of `Cc1ccccc1N1CCN(c2ccc(C(=O)NCc3cccc(-c4nnn[nH]4)c3)cc2NC(=O)c2ccco2)CC1` [Compound 248], under 0.1 µM.
Consider `Cc1ccccc1N1CCN(c2ccc(C(=O)NCCCN3CCCC3=O)cc2Nc2ncccn2)CC1` [Compound 242, N-[3-(2-Oxo-pyrrolidin-1-yl)-propyl]-3-(pyrimidin-2-ylamino)-4-(4-o-tolyl-piperazin-1-yl)-benzamide], for which the EC50 fell in the range of 1 to 10 µM.
Same read-out and setting: then `Cc1ccccc1N1CCN(c2ccc(C(=O)NCCCN3CCCC3=O)cc2NC(=O)c2cocn2)CC1` [Compound 103], with 1 to 10 µM.

The assay is the same for the next values; noted with them: CHO FSHR cells + EC20 FSH; Table 2; read-out: Assay A EC50 of cyclic AMP production.
In the case of `Cc1ccc(C(=O)Nc2cc(C(=O)NCc3cccc(CN4CCCC4)c3)ccc2N2CCN(c3ccccc3C)CC2)o1` [Compound 546], the EC50 was in the range of 1 to 10 µM.
As to `Cc1ccccc1N1CCN(c2ccc(C(=O)NCCCN3CCCC3=O)cc2NC(=O)c2cc(C3CC3)on2)CC1` [Compound 308], the EC50 fell in the range of 0.1 to 1 µM.
For `Cc1ccccc1N1CCN(c2ccc(C(=O)NCCCN3CCOC3=O)cc2NC(=O)c2coc(C3CC3)n2)CC1` [Compound 321], the half-maximal effective concentration (EC50) lay in the range of 0.1 to 1 µM.
`CC(=O)NCCOCCOCCNC(=O)c1ccc(N2CCN(c3ccccc3C)CC2)c(NC(=O)c2coc(C3CC3)n2)c1` [Compound 424]: the half-maximal effective concentration (EC50) lay in the range of 0.1 to 1 µM.
Take `Cc1ccccc1N1CCN(c2ccc(C(=O)NCCCc3nccs3)cc2NC(=O)c2coc(C3CC3)n2)CC1` [Compound 393]: the EC50 was 0.1 to 1 µM.
On to `COc1cccc(CNC(=O)c2ccc(N3CCN(c4ccccc4C)CC3)c(NC(=O)c3coc(C4CC4)n3)c2)c1` [Compound 276], for which the concentration giving a half-maximal response (EC50) is 0.1 to 1 µM.
As to `Cc1ccc(C(=O)Nc2cc(C(=O)NCCCO)ccc2N2CCN(c3ccccc3C)CC2)o1` [Compound 303], the EC50 fell in the range of 1 to 10 µM.
With `CCNC(=O)NCCCNC(=O)c1ccc(N2CCN(c3ccccc3C)CC2)c(NC(=O)c2ccc(C)o2)c1` [Compound 270], the EC50 is 0.1 to 1 µM.
On to `Cc1ccc(C(=O)Nc2cc(C(=O)NCCCN3CCCC3=O)ccc2N2CCN(c3c(C)cccc3C)CC2)o1` [Compound 298], for which the EC50 was 1 to 10 µM.
For the compound `Cc1ccccc1N(C)C1CCN(c2ccc(C(=O)NCCCN3CCCC3=O)cc2NC(=O)c2coc(C3CC3)n2)CC1` [Compound 405], the concentration for a half-maximal effect (EC50) lay in the range of 0.1 to 1 µM.
On the same count and under the same terms, then `CC(=O)NC1(c2ccccc2)CCN(c2ccc(C(=O)NCCCN3CCCC3=O)cc2NC(=O)c2coc(C3CC3)n2)CC1` [Compound 400], with over 10 µM; and `Cc1ccccc1N1CCN(c2ccc(C(=O)NCc3cccc(CN(C)C)c3)cc2NS(C)(=O)=O)CC1` [Compound 563], with over 10 µM; and `Cc1ccccc1N1CCN(c2ccc(C(=O)NCCCC(=O)NCCO)cc2NC(=O)c2coc(C3CC3)n2)CC1` [Compound 515], with under 0.1 µM.
Take `Cc1ccccc1N1CCN(c2ccc(C(=O)NCCCN3CCCC3=O)cc2NC(=O)c2nnc(C3CC3)o2)CC1` [Compound 466]: the EC50 fell in the range of 1 to 10 µM.
Still for that read-out and setting: in the case of `Cc1ccccc1N1CCN(c2ccc(C(=O)NCCCN3CCOC3=O)cc2NC(=O)c2ccc(Br)o2)CC1` [Compound 385] it was 0.1 to 1 µM; in that of `Cc1ccccc1N1CCN(c2ccc(C(=O)NCCc3cccc(CN(C)C)c3)cc2NC(=O)c2ccco2)CC1` [Compound 437], 0.1 to 1 µM.
In the case of `CNCc1cccc(CNC(=O)c2ccc(N3CCN(c4ccccc4C)CC3)c(NC(=O)c3ccco3)c2)c1` [Compound 323], the concentration for a half-maximal effect (EC50) was in the range of 0.1 to 1 µM.
Take `Cc1ccccc1N1CCN(c2ccc(C(=O)NCCNC3CS(=O)(=O)CC3O)cc2NC(=O)c2ccco2)CC1` (stereo not drawn) [Compound 371]: the concentration for a half-maximal effect (EC50) lay within 0.1 to 1 µM.
Regarding `Cc1ccccc1N1CCN(c2ccc(C(=O)NCCCc3ccccc3Cl)cc2NC(=O)c2ccco2)CC1` [Compound 373], the EC50 was in the range of 1 to 10 µM.
Same read-out and setting: then `COc1cncc(N2CCN(c3ccc(C(=O)NCCCN4CCCC4=O)cc3NC(=O)c3coc(C4CC4)n3)CC2)c1` [Compound 599], with over 10 µM; and `CCN(C)Cc1cccc(CNC(=O)c2ccc(N3CCN(c4ccccc4C)CC3)c(NC(=O)c3ccc(C)o3)c2)c1` [Compound 547], with 1 to 10 µM; and `Cc1nc(C(=O)Nc2cc(C(=O)NCCc3cnc[nH]3)ccc2N2CCN(c3ccccc3C)CC2)cs1` [Compound 301], with 1 to 10 µM.
Turning to `Cc1ccccc1N1CCN(c2ccc(C(=O)NCCCc3nc(C)c(C)s3)cc2NC(=O)c2coc(C3CC3)n2)CC1` [Compound 390], the EC50 fell in the range of 0.1 to 1 µM.
Regarding `Cc1ccccc1N1CCN(c2ccc(C(=O)NCCCc3ccccc3)cc2NC(=O)c2coc(C3CC3)n2)CC1` [Compound 278], the EC50 lay within 1 to 10 µM.
As for `Cc1csc(CCCNC(=O)c2ccc(N3CCN(c4ccccc4C)CC3)c(NC(=O)c3coc(C4CC4)n3)c2)n1` [Compound 395], the concentration for a half-maximal effect (EC50) lay within 0.1 to 1 µM.
Consider `Cc1ccccc1N1CCN(c2ccc(C(=O)NCc3cccc(CO)c3)cc2NC(=O)c2coc(C3CC3)n2)CC1` [Compound 574], for which the 50% effective concentration (EC50) is 0.1 to 1 µM.
Turning to `Cc1cncnc1N1CCN(c2ccc(C(=O)NCCCN3CCCC3=O)cc2NC(=O)c2coc(C3CC3)n2)CC1` [Compound 413], the EC50 was in the range of 1 to 10 µM.
